Measured values: patent publication US11248234B2, “Herbicide-resistant hydroxyphenylpyruvate dioxygenases” (BASF SE, priority 2015, dated 2022)
Entries after “also recorded” stand apart in the source; their conditions may differ.

What was measured:
[1] = target: Scenedesmus Short HPPD (Seq ID: 4) (Tetradesmus obliquus, UniProt A0A383WMN4, DEL398-433/N195D); experiment: In vitro HPPD activity assay; assay type: biochemical; conditions: for TI (normalized tolerance index): normalized on Arabidopsis wild-type HPPD (SEQ ID NO:42)
Protocol: (§1) HPPD produces homogentisic acid and CO2 from 4-hydroxyphenylpyruvate (4-HPP) and O2. The activity assay for HPPD is based on the analysis of homogentisic acid by reversed phase HPLC.
(§2) The assay mixture can contain 150 mM potassium phosphate buffer pH 7.0, 50 mM L-ascorbic acid, 100 μM Catalase (Sigma-Aldrich), 1 μM FeSO4 and 0.2 units of purified mutated HPPD enzyme in a total volume of 505 μl. 1 unit is defined as the amount of enzyme that is required to produce 1 nmol of HGA per minute at 20° C.
(§3) After a preincubation of 30 min the reaction is started by adding 4-HPP to a final concentration of 0.05 mM. The reaction is allowed to proceed for 45 min at room temperature. The reaction is stopped by the addition of 50 μl of 4.5 M phosphoric acid. The sample is filtered using a […] pore size PVDF filtration device.
(§4) 5 μl of the cleared sample is analyzed on an UPLC HSS T3 column (particle size 1.8 μm, dimensions 2.1×50 mm; Waters) by isocratic elution using 90% 20 mM NaH2PO4 pH 2.2, 10% methanol (v/v).
(§5) HGA is detected electrochemically at 750 mV (mode: DC; polarity: positive) and quantified by integrating peak areas (Empower software; Waters).
(§6) Inhibitors are dissolved in DMSO (dimethylsulfoxide) to a concentration of 0.5 mM. From this stock solution serial five-fold dilutions are prepared in DMSO, which are used in the assay. The respective inhibitor solution accounts for 1% of the assay volume. Thus, final inhibitor concentrations range from 5 μM to 320 pM, respectively. Activities are normalized by setting the uninhibited enzyme activity to 100%. IC50 values are calculated using non-linear regression.
(§7) Using methods which are described in the above examples or well known in the art, purified, recombinant mutated HPPD enzymes are characterized with respect to their kinetic properties and sensitivity towards HPPD inhibiting herbicides. Apparent michaelis constants (Km) and maximal reaction velocities (Vmax) are calculated by non-linear regression with the software GraphPad Prism 5 (GraphPad Software, La Jolla, USA) using a substrate inhibition model. Apparent kcat values are calculated from Vmax assuming 100% purity of the enzyme preparation. Weighted means (by standard error) of Km and IC50 values are calculated from at least three independent experiments. The Cheng-Prusoff equation for competitive inhibition (Cheng, Y. C.; Prusoff, W. H. Biochem Pharmacol 1973, 22, 3099-3108) is used to calculate dissociation constants (Ki).
(§8) Field performance of the HPPD enzyme, which is used as a herbicide tolerance trait may depend not only on its lack of sensitivity towards HPPD inhibiting herbicides but also on its activity. To assess the potential performance of a herbicide tolerance trait a tolerance index (TI) is calculated using the following formula: […]
(§9) Easy comparison and ranking of each trait is enabled by normalizing tolerance indexes on Arabidopsis wild-type HPPD.

[2] = target: Scenedesmus HPPD (Seq ID: 2) (Tetradesmus obliquus, UniProt A0A383WMN4, N195D); experiment: In vitro HPPD activity assay; assay type: biochemical; conditions: for TI (normalized tolerance index): normalized on Arabidopsis wild-type HPPD (SEQ ID NO:42)
Protocol: as §1, §2, §3, §4, §5, §6, §7, §8, §9

SoHPPD Q317H = experiment: In vitro HPPD activity assay; assay type: biochemical, Scenedesmus obliquus; conditions: normalized on Arabidopsis wild-type HPPD (SEQ ID NO:42)
Protocol: as §1, §2, §3, §4, §5, §6, §7, §8, §9

[3] = test system: SoHPPD E345Q, K326D (short); experiment: In vitro HPPD activity assay; assay type: biochemical, Scenedesmus obliquus; conditions: normalized on Arabidopsis wild-type HPPD (SEQ ID NO:42)
Protocol: as §1, §2, §3, §4, §5, §6, §7, §8, §9

SoHPPD I419V (short) = experiment: In vitro HPPD activity assay; assay type: biochemical, Scenedesmus obliquus; conditions: normalized on Arabidopsis wild-type HPPD (SEQ ID NO:42)
Protocol: as §1, §2, §3, §4, §5, §6, §7, §8, §9

[4] = test system: SoHPPD F39W, L367V, I375L (short); experiment: In vitro HPPD activity assay; assay type: biochemical, Scenedesmus obliquus; conditions: normalized on Arabidopsis wild-type HPPD (SEQ ID NO:42)
Protocol: as §1, §2, §3, §4, §5, §6, §7, §8, §9

[5] = test system: SoHPPD A318P, A319P (short); experiment: In vitro HPPD activity assay; assay type: biochemical, Scenedesmus obliquus; conditions: normalized on Arabidopsis wild-type HPPD (SEQ ID NO:42)
Protocol: as §1, §2, §3, §4, §5, §6, §7, §8, §9

SoHPPD F363I = experiment: In vitro HPPD activity assay; assay type: biochemical, Scenedesmus obliquus; conditions: normalized on Arabidopsis wild-type HPPD (SEQ ID NO:42)
Protocol: as §1, §2, §3, §4, §5, §6, §7, §8, §9

[6] = test system: SoHPPD Q317H, A318G, E345Q; experiment: In vitro HPPD activity assay; assay type: biochemical, Scenedesmus obliquus; conditions: normalized on Arabidopsis wild-type HPPD (SEQ ID NO:42)
Protocol: as §1, §2, §3, §4, §5, §6, §7, §8, §9

[7] = test system: SoHPPD E345Q, K326Q (short); experiment: In vitro HPPD activity assay; assay type: biochemical, Scenedesmus obliquus; conditions: normalized on Arabidopsis wild-type HPPD (SEQ ID NO:42)
Protocol: as §1, §2, §3, §4, §5, §6, §7, §8, §9

SoHPPD I455V = experiment: In vitro HPPD activity assay; assay type: biochemical, Scenedesmus obliquus; conditions: normalized on Arabidopsis wild-type HPPD (SEQ ID NO:42)
Protocol: as §1, §2, §3, §4, §5, §6, §7, §8, §9

[8] = test system: SoHPPD A318R, L350M (short); experiment: In vitro HPPD activity assay; assay type: biochemical, Scenedesmus obliquus; conditions: normalized on Arabidopsis wild-type HPPD (SEQ ID NO:42)
Protocol: as §1, §2, §3, §4, §5, §6, §7, §8, §9

[9] = test system: SoHPPD L367V, I375L (short); experiment: In vitro HPPD activity assay; assay type: biochemical, Scenedesmus obliquus; conditions: normalized on Arabidopsis wild-type HPPD (SEQ ID NO:42)
Protocol: as §1, §2, §3, §4, §5, §6, §7, §8, §9

[10] = target: T1, Arabidopsis HPPD (Seq ID: 42) (Arabidopsis thaliana, UniProt P93836); experiment: In vitro HPPD activity assay (homogentisic acid by HPLC); assay type: biochemical; conditions: benchmark enzyme; normalized on Arabidopsis wild-type HPPD
T1 construct: His6; made in house; host or cells: E. coli BL21 (DE3)
T1 sequence (P93836 1-445): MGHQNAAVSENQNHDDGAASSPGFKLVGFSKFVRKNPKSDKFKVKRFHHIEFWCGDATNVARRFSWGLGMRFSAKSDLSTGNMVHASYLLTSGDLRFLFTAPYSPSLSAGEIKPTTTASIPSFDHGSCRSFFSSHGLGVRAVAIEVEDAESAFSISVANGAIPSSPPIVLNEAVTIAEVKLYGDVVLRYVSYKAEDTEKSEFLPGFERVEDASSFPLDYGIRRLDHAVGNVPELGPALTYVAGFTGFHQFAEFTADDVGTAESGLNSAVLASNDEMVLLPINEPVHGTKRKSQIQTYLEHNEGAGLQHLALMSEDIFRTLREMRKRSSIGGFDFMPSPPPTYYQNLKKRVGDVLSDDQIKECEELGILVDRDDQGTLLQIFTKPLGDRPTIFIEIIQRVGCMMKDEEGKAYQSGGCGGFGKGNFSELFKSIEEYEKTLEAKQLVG
Protocol: as §1, §2, §3, §4, §5
as §6, with “Thus, final inhibitor concentrations range from 5 μM to 320 pM, respectively.” left out
as §7, with “Apparent kcat values are calculated from Vmax assuming 100% purity of the enzyme preparation.” left out, “experiments.” for “experiments. The Cheng-Prusoff equation for competitive inhibition (Cheng, Y. C.; Prusoff, W. H. Biochem Pharmacol 1973, 22, 3099-3108) is used to calculate dissociation constants (Ki).”
as §8, §9

Sequence of Scenedesmus Short HPPD (Seq ID: 4) (A0A383WMN4 entry or part of it N195D/DEL398-433): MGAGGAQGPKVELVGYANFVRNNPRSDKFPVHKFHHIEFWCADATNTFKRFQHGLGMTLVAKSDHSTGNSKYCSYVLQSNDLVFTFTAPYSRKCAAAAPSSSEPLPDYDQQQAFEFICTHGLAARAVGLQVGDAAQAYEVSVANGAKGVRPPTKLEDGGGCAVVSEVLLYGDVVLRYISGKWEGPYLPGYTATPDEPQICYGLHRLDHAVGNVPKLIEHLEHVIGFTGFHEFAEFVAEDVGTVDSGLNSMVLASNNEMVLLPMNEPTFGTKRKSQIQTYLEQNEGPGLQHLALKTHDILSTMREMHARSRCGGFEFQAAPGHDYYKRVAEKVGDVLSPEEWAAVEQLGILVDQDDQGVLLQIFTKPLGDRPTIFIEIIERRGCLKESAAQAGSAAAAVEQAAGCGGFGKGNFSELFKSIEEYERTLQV
Sequence of Scenedesmus HPPD (Seq ID: 2) (A0A383WMN4 entry or part of it N195D): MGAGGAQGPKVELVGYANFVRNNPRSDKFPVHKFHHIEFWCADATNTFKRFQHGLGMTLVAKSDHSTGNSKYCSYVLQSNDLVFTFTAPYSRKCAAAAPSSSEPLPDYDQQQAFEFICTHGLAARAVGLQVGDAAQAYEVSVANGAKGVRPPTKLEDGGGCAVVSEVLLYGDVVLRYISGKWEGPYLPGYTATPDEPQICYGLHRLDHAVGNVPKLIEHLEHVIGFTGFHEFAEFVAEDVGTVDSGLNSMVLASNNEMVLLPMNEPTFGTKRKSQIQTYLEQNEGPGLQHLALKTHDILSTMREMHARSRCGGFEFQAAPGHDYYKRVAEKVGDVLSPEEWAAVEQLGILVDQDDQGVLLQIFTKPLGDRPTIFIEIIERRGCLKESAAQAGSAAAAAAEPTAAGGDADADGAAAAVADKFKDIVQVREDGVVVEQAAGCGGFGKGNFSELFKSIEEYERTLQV

Compound `Cc1c(C(=O)c2cnn(C)c2O)ccc(S(C)(=O)=O)c1C1=NOCC1` [Inhibitor 1, [3-(4,5-dihydroisoxazol-3-yl)-2-methyl-4-methylsulfonyl-phenyl]-(5-hydroxy-1-methyl-pyrazol-4-yl)methanone] has a Ki [1] of 46 nM and a Ki [2] of 11 nM.

In the case of `CS(=O)(=O)c1ccc(C(=O)C2C(=O)CCCC2=O)c([N+](=O)[O-])c1` [Inhibitor 2, 2-(4-methylsulfonyl-2-nitro-benzoyl)cyclohexane-1,3-dione], the “TI (normalized tolerance index)” value (SoHPPD Q317H) is reported as 0.1, the “TI (normalized tolerance index)” value [3] is reported as 0.1 and the “TI (normalized tolerance index)” value (SoHPPD I419V (short)) is reported as 0.1. For the same compound, the “TI (normalized tolerance index)” value [4] was 0.0, the “TI (normalized tolerance index)” value [5] was 0.2 and the “TI (normalized tolerance index)” value (SoHPPD F363I) was 0.1. The “TI (normalized tolerance index)” value [6] was 0.1, the “TI (normalized tolerance index)” value [7] was 0.1 and the “TI (normalized tolerance index)” value (SoHPPD I455V) was 0.1. The “TI (normalized tolerance index)” value [8] was 0.8, the “TI (normalized tolerance index)” value [9] was 0.0 and the “TI (normalized tolerance index)” value [10] was 1.0. The “TI (normalized tolerance index)” value [1] was 0.0 and the “TI (normalized tolerance index)” value [2] was 0.5.

With `CCS(=O)(=O)c1cc(C(F)(F)F)ccc1C1=C(O)c2ncccc2C(C)(C)S1(=O)=O` [Inhibitor 4, 7-[2-ethylsulfonyl-4-(trifluoromethyl)phenyl]-5,5-dimethyl-6,6-dioxo-thiopyrano[4,3-b]pyridin-8-ol] the “TI (normalized tolerance index)” value (SoHPPD Q317H) was 0.3, the “TI (normalized tolerance index)” value [3] was 0.0 and the “TI (normalized tolerance index)” value (SoHPPD I419V (short)) was 0.3. For the same compound, the “TI (normalized tolerance index)” value [4] was 0.2, the “TI (normalized tolerance index)” value [5] was 0.6 and the “TI (normalized tolerance index)” value (SoHPPD F363I) was 0.1. The “TI (normalized tolerance index)” value [6] was 0.4, the “TI (normalized tolerance index)” value [7] was 0.0 and the “TI (normalized tolerance index)” value (SoHPPD I455V) was 0.5. The “TI (normalized tolerance index)” value [8] was 1.0, the “TI (normalized tolerance index)” value [9] was 0.3 and the “TI (normalized tolerance index)” value [10] was 1.0. For the same compound, the “TI (normalized tolerance index)” value [1] was 1.4 and the “TI (normalized tolerance index)” value [2] was 0.1.

For `CC(=O)N(C)c1c(Cl)ccc(C2=C(O)c3ncccc3C(C)(C)S2(=O)=O)c1Cl` [Inhibitor 5, N-[2,6-dichloro-3-(8-hydroxy-5,5-dimethyl-6,6-dioxo-thiopyrano[4,3-b]pyridin-7-yl)phenyl]-N-methyl-acetamide], the “TI (normalized tolerance index)” value (SoHPPD Q317H) was 0.2, the “TI (normalized tolerance index)” value [3] was 0.2 and the “TI (normalized tolerance index)” value (SoHPPD I419V (short)) was 0.1. For the same compound, the “TI (normalized tolerance index)” value [4] was 0.1, the “TI (normalized tolerance index)” value [5] was 0.5 and the “TI (normalized tolerance index)” value (SoHPPD F363I) was 0.4. For the same compound, the “TI (normalized tolerance index)” value [6] was 0.2, the “TI (normalized tolerance index)” value [7] was 0.2 and the “TI (normalized tolerance index)” value (SoHPPD I455V) was 0.7. The “TI (normalized tolerance index)” value [8] was 0.7, the “TI (normalized tolerance index)” value [9] was 0.3 and the “TI (normalized tolerance index)” value [10] was 1.0. The “TI (normalized tolerance index)” value [1] was 1.3 and the “TI (normalized tolerance index)” value [2] was 0.0.

With `CCSc1ccc(Cl)c(C(=O)Nc2nnnn2C)c1Cl` [Inhibitor 8, 2,6-dichloro-3-ethylsulfanyl-N-(1-methyltetrazol-5-yl)benzamide] the “TI (normalized tolerance index)” value (SoHPPD Q317H) was 0.1, the “TI (normalized tolerance index)” value [3] was 0.3 and the “TI (normalized tolerance index)” value (SoHPPD I419V (short)) was 0.3. For the same compound, the “TI (normalized tolerance index)” value [4] was 0.5, the “TI (normalized tolerance index)” value [5] was 0.8 and the “TI (normalized tolerance index)” value (SoHPPD F363I) was “no inhibition; also recorded: no inhi-”. The “TI (normalized tolerance index)” value [6] was 0.1, the “TI (normalized tolerance index)” value [7] was 0.3 and the “TI (normalized tolerance index)” value (SoHPPD I455V) was 0.3. For the same compound, the “TI (normalized tolerance index)” value [8] was 1.2, the “TI (normalized tolerance index)” value [9] was 0.7 and the “TI (normalized tolerance index)” value [10] was 1.0. For the same compound, the “TI (normalized tolerance index)” value [1] was 0.9 and the “TI (normalized tolerance index)” value [2] was 0.1.
